Experimental data from ChEMBL document CHEMBL5523762, “Discovery of Potent and Selective G9a Degraders for the Treatment of Pancreatic Cancer” (J Med Chem, 2024).
The source made the active and inactive calls. No cut-off for these calls is given here.

Experiments:
PANC-1 [1] = assay: Upregulation of gammaH2AX expression in human PANC-1 cells at 0.1 to 10 uM measured after 24 hrs by Western blot analysis; format: functional, cell-based; conditions: dose 0.1-10 µM
Panc1005 [2] = assay: Antiproliferative activity against human Panc1005 cells assessed as inhibition of cell growth measured after 72 hrs by SRB assay; format: functional, cell-based
[3] = biological target: T1, Protein cereblon/Histone-lysine N-methyltransferase EHMT2 (Homo sapiens, UniProt Q96KQ7+Q96SW2); assay: PROTAC activity at CRBN/G9a in human PANC-1 cells assessed as downregulation of G9a protein level at 1 uM measured after 8 hrs by quantitative proteomics analysis; format: cell-based
T1 sequence (Q96KQ7 2-1210 limits assumed): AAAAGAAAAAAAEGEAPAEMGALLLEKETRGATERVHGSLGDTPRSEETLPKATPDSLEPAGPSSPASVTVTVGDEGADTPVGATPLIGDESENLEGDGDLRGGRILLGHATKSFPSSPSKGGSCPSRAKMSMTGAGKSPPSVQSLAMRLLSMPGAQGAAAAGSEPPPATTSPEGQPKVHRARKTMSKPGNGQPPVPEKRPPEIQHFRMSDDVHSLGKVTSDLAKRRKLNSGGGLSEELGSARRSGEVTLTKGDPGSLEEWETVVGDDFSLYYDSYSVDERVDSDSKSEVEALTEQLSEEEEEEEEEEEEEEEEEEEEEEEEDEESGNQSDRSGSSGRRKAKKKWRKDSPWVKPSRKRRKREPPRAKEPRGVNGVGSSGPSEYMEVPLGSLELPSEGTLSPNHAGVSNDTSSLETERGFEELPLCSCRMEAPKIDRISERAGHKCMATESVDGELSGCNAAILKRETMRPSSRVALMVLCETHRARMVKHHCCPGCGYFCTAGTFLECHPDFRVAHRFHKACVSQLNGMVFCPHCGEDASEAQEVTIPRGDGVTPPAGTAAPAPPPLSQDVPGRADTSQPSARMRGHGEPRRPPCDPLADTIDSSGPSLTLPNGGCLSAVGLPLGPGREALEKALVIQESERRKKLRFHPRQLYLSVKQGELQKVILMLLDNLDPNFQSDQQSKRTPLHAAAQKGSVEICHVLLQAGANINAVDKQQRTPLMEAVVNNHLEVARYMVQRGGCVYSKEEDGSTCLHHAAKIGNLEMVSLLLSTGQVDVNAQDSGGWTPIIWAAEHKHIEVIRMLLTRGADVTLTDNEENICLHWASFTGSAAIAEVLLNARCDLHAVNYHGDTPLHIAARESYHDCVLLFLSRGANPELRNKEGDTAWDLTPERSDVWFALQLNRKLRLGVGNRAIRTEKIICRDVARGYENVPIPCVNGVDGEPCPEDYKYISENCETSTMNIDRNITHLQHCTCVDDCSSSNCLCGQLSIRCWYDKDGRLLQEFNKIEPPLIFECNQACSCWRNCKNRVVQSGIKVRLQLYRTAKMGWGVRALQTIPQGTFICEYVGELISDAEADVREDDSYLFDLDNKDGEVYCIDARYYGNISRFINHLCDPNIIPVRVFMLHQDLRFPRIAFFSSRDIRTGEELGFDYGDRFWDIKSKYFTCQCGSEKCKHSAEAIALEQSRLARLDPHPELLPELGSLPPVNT
T1 sequence (Q96SW2 whole entry partner): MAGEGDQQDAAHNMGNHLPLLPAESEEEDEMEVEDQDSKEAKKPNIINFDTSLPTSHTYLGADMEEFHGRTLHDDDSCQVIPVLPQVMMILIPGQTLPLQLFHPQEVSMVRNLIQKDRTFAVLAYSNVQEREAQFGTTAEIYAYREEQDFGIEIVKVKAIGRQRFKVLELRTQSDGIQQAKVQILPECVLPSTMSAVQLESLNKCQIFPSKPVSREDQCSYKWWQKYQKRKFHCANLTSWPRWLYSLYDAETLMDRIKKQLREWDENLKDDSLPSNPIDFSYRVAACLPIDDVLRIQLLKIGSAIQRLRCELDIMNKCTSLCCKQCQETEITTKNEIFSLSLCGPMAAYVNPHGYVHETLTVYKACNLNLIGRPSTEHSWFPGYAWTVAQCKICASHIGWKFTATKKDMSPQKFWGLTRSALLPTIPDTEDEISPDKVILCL

PANC-1 [4] = assay: Effect on CK1alpha level in human PANC-1 cells at 0.008 to 10 uM measured after 8 hrs by western blot analysis; format: functional, cell-based; conditions: dose 0.008-10 µM
[5] = Clearance in male ICR mouse at 5 mg/kg, iv measured upto 24 hrs by LC-MS/MS analysis; format: ADME, organism-based; conditions: in vivo
Panc1005 [6] = assay: Synergistic antiproliferative activity against human Panc1005 cells assessed as combination index upto 20 uM incubated for 72 hrs in presence of MRTX1133; format: functional
KP-4 = assay: Synergistic antiproliferative activity against human KP-4 cells assessed as combination index for ED90 upto 20 uM incubated for 72 hrs in presence of MRTX1133; format: functional
Panc 04.03 = assay: Antiproliferative activity against human Panc 04.03 cells assessed as inhibition of cell growth measured after 72 hrs by SRB assay; format: functional, cell-based
[7] = biological target: T1, Protein cereblon/Histone-lysine N-methyltransferase EHMT2; assay: PROTAC activity at CRBN/G9a in human PANC-1 cells assessed as induction of G9a degradation at 1 uM in presence of 50 uM cycloheximide measured after 4 hrs by Western blot analysis; format: cell-based
[8] = biological target: T2, Protein cereblon/Histone-lysine N-methyltransferase EHMT1 (Homo sapiens) (UniProt Q9H9B1+Q96SW2); assay: PROTAC activity at CRBN/GLP in human ASPC1 cells assessed as induction of GLP degradation at 0.008 to 20 uM measured after 8 hrs by Western blot analysis; format: cell-based; conditions: dose 0.008-20 µM
T2 sequence (Q96SW2 whole entry, looked up): as the sequence (Q96SW2 whole entry partner) above
T2 sequence (Q9H9B1 whole entry, looked up): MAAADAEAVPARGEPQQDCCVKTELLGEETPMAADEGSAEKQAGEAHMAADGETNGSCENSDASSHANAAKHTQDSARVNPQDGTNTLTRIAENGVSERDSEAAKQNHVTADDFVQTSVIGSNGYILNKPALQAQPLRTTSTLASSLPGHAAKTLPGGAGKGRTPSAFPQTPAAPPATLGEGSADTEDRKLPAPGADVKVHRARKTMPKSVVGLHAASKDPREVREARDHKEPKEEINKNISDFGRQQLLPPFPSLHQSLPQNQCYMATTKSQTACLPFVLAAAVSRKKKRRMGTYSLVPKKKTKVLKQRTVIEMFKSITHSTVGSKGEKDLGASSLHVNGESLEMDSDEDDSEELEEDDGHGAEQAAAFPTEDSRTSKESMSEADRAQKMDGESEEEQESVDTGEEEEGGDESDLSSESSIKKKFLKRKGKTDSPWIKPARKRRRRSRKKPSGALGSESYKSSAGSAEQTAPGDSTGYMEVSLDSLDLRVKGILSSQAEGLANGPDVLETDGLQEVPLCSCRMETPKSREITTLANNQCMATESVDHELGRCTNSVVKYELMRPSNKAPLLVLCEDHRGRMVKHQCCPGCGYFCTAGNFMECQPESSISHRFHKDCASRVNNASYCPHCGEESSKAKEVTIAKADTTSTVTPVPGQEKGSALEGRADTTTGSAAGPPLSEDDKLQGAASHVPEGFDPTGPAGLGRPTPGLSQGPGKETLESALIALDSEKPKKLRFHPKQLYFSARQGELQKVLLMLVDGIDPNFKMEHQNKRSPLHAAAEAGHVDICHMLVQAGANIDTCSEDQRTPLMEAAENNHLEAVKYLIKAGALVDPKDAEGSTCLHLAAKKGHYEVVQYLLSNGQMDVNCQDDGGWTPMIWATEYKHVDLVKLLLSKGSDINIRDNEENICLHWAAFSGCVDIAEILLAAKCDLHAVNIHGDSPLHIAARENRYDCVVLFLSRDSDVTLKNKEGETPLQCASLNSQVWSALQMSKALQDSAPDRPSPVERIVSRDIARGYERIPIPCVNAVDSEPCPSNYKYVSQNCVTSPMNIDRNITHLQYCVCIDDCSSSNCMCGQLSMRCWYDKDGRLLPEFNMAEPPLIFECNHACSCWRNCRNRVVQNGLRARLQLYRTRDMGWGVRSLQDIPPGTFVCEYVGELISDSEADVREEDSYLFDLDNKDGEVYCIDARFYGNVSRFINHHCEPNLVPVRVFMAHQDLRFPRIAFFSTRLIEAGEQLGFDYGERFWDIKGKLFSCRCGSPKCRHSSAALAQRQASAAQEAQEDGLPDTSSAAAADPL

Panc 02.03 = assay: Synergistic antiproliferative activity against human Panc 02.03 cells assessed as combination index upto 20 uM incubated for 72 hrs in presence of MRTX1133; format: functional
HPAF-II [9] = assay: Synergistic antiproliferative activity against human HPAF-II cells assessed as combination index upto 20 uM incubated for 72 hrs in presence of MRTX1133; format: functional
HPAF-II [10] = assay: Antiproliferative activity against human HPAF-II cells assessed as inhibition of cell growth measured after 72 hrs by SRB assay; format: functional, cell-based
PANC-1 [11] = assay: Effect on H3K4me1 level in human PANC-1 cells at 0.04 to 10 uM measured after 24 hrs by Western blot analysis; format: functional, cell-based; conditions: dose 0.04-10 µM
PANC-1 [12] = assay: Effect on H3K27me1 level in human PANC-1 cells at 0.04 to 10 uM measured after 24 hrs by Western blot analysis; format: functional, cell-based; conditions: dose 0.04-10 µM
PANC-08-13 [13] = assay: Antiproliferative activity against human PANC-08-13 cells assessed as inhibition of cell growth measured after 72 hrs by SRB assay; format: functional, cell-based
[14] = biological target: T2, Protein cereblon/Histone-lysine N-methyltransferase EHMT1 (Homo sapiens); assay: PROTAC activity at CRBN/GLP in human PANC-1 cells assessed as downregulation of GLP protein level at 1 uM in presence of 50 uM cycloheximide measured after 0 to 16 hrs by […]; format: cell-based; conditions: time 0-16 hrs
[15] = biological target: T1, Protein cereblon/Histone-lysine N-methyltransferase EHMT2; assay: PROTAC activity at CRBN/G9a in human PANC-1 cells assessed as induction of G9a degradation at 1 uM pretreated with thalidomide for 2 hrs followed by compound addition and measured after 8 hrs by Western blot analysis; format: cell-based
ASPC1 [16] = assay: Synergistic antiproliferative activity against human ASPC1 cells assessed as combination index upto 20 uM incubated for 72 hrs in presence of MRTX1133; format: functional
PANC-1 [17] = assay: Effect on GLP mRNA expression at transcriptional level in human PANC-1 cells at 0.1 to 10 uM by RT-qPCR analysis; format: functional, cell-based; conditions: dose 0.1-10 µM
ASPC1 [18] = assay: Downregulation of H3K9me2 level in human ASPC1 cells at 10 uM incubated for 24 hrs in presence of 1 uM MRTX1133 by Western blot analysis; format: functional, cell-based
[19] = biological target: T1, Protein cereblon/Histone-lysine N-methyltransferase EHMT2; assay: PROTAC activity at CRBN/G9a in human PANC-1 cells assessed as induction of G9a degradation at 1 uM pretreated with UNC0638 for 2 hrs followed by compound addition and measured after 8 hrs by Western blot analysis; format: cell-based
PANC-1 [20] = assay: Effect on G9a mRNA expression at transcriptional level in human PANC-1 cells at 0.1 to 10 uM by RT-qPCR analysis; format: functional, cell-based; conditions: dose 0.1-10 µM
PANC-1 [21] = assay: Effect on H3K23me3 level in human PANC-1 cells at 0.04 to 10 uM measured after 24 hrs by Western blot analysis; format: functional, cell-based; conditions: dose 0.04-10 µM
PANC-08-13 [22] = assay: Synergistic antiproliferative activity against human PANC-08-13 cells assessed as combination index upto 20 uM incubated for 72 hrs in presence of MRTX1133; format: functional
PANC-1 [23] = assay: Effect on H3K36me3 level in human PANC-1 cells at 0.04 to 10 uM measured after 24 hrs by Western blot analysis; format: functional, cell-based; conditions: dose 0.04-10 µM

For `COc1cc2c(NC3CCN(CCCC(=O)NCCCCCCCCNc4cccc5c4C(=O)N(C4CCC(=O)NC4=O)C5=O)CC3)nc(C3CCCCC3)nc2cc1OCCCN1CCCC1` (stereo unspecified), the Activity (PANC-1 [1]) was “Active”, the Activity (Panc1005 [2]) was “Active” and the Activity [3] was “Active”. The Activity (PANC-1 [4]) was “inactive”, the clearance [5] was 22.4 mL/min/kg and the CI (Panc1005 [6]) was <0.8. The CI (KP-4) was <0.4, the Activity (Panc 04.03) was “Active” and the Activity [7] was “Active”. For the same compound, the Activity [8] was “inactive”, the CI (Panc 02.03) was <0.8 and the CI (HPAF-II [9]) was <0.8. The Activity (HPAF-II [10]) was “Active”, the Activity (PANC-1 [11]) was “inactive” and the Activity (PANC-1 [12]) was “inactive”. For the same compound, the Activity (PANC-08-13 [13]) was “Active”, the Activity [14] was “inactive” and the Activity [15] was “inactive”. For the same compound, the CI (ASPC1 [16]) was <0.8, the Activity (PANC-1 [17]) was “inactive” and the Activity (ASPC1 [18]) was “Active”. The Activity [19] was “inactive”, the Activity (PANC-1 [20]) was “inactive” and the Activity (PANC-1 [21]) was “inactive”. For the same compound, the CI (PANC-08-13 [22]) was <0.8 and the Activity (PANC-1 [23]) was “inactive”.
